From ChEMBL document CHEMBL3875216, “Synthesis of antimicrobial glucosamides as bacterial quorum sensing mechanism inhibitors” (Bioorg Med Chem, 2017)

How the values were obtained:
[1] = system: Pseudomonas aeruginosa; assay: Inhibition of LasR-dependent quorum sensing activity in Pseudomonas aeruginosa MH602 harboring GFP-fused […] LasB promoter assessed as inhibition of 3-oxo-dodecanoyl HSL-induced GFP expression at 2 mM measured after 8 hrs by fluorescence assay relative to control
[2] = system: Pseudomonas aeruginosa; assay: Inhibition of LasR-dependent quorum sensing activity in Pseudomonas aeruginosa MH602 harboring GFP-fused […] LasB promoter assessed as inhibition of 3-oxo-dodecanoyl HSL-induced GFP expression at 1 mM measured after 8 hrs by fluorescence assay relative to control
[3] = system: Pseudomonas aeruginosa; assay: Inhibition of LasR-dependent quorum sensing activity in Pseudomonas aeruginosa MH602 harboring GFP-fused […] LasB promoter assessed as inhibition of 3-oxo-dodecanoyl HSL-induced GFP expression at 500 uM measured after 8 hrs by fluorescence assay relative to control
[4] = system: Escherichia coli; assay: Inhibition of LuxR-dependent quorum sensing activity in Escherichia coli MT102 harboring pJBA132 assessed as inhibition of OHHL-induced GFP expression at 2 mM measured after 24 hrs by fluorescence assay relative to control
[5] = system: Escherichia coli; assay: Inhibition of LuxR-dependent quorum sensing activity in Escherichia coli MT102 harboring pJBA132 assessed as inhibition of OHHL-induced GFP expression at 1 mM measured after 8 hrs by fluorescence assay relative to control
[6] = system: Escherichia coli; assay: Inhibition of LuxR-dependent quorum sensing activity in Escherichia coli MT102 harboring pJBA132 assessed as inhibition of OHHL-induced GFP expression at 1 mM measured after 24 hrs by fluorescence assay relative to control
[7] = system: Pseudomonas aeruginosa; assay: Growth inhibition of Pseudomonas aeruginosa MH602 at 2 mM after 8 hrs relative to control; settings: MH602, 8 h, read-out: GI
[8] = system: Pseudomonas aeruginosa; assay: Growth inhibition of Pseudomonas aeruginosa MH602 at 2 mM after 24 hrs relative to control; settings: MH602, 24 h, read-out: GI
[9] = system: Pseudomonas aeruginosa; assay: Growth inhibition of Pseudomonas aeruginosa MH602 at 1 mM after 8 hrs relative to control; settings: MH602, 8 h, read-out: GI
[10] = system: Pseudomonas aeruginosa; assay: Growth inhibition of Pseudomonas aeruginosa MH602 at 1 mM after 24 hrs relative to control; settings: MH602, 24 h, read-out: GI
[11] = system: Pseudomonas aeruginosa; assay: Growth inhibition of Pseudomonas aeruginosa MH602 at 500 uM after 8 hrs relative to control; settings: MH602, 8 h, read-out: GI
[12] = system: Pseudomonas aeruginosa; assay: Growth inhibition of Pseudomonas aeruginosa MH602 at 500 uM after 24 hrs relative to control; settings: MH602, 24 h, read-out: GI
[13] = system: Escherichia coli; assay: Growth inhibition of Escherichia coli MT102 at 2 mM after 8 hrs relative to control; settings: MT102, 8 h, read-out: GI
[14] = system: Escherichia coli; assay: Growth inhibition of Escherichia coli MT102 at 2 mM after 24 hrs relative to control; settings: MT102, 24 h, read-out: GI
[15] = system: Escherichia coli; assay: Growth inhibition of Escherichia coli MT102 at 1 mM after 8 hrs relative to control; settings: MT102, 8 h, read-out: GI
[16] = system: Escherichia coli; assay: Growth inhibition of Escherichia coli MT102 at 1 mM after 24 hrs relative to control; settings: MT102, 24 h, read-out: GI
[17] = system: Escherichia coli; assay: Growth inhibition of Escherichia coli MT102 at 500 uM after 8 hrs relative to control; settings: MT102, 8 h, read-out: GI
[18] = system: Escherichia coli; assay: Growth inhibition of Escherichia coli MT102 at 500 uM after 24 hrs relative to control; settings: MT102, 24 h, read-out: GI
[19] = system: Pseudomonas aeruginosa; assay: Growth inhibition of Pseudomonas aeruginosa PA14 at 2 mM after 24 hrs relative to control; settings: 2000 µM
[20] = system: Pseudomonas aeruginosa PA14; assay: Inhibition of quorum sensing-regulated biofilm formation in Pseudomonas aeruginosa PA14 at 2 mM after overnight incubation by crystal violet staining based assay relative to control
[21] = system: Pseudomonas aeruginosa; assay: Inhibition of LasR-dependent quorum sensing activity in Pseudomonas aeruginosa MH602 harboring GFP-fused […] LasB promoter assessed as inhibition of 3-oxo-dodecanoyl HSL-induced GFP expression at 2 mM measured after 24 hrs by fluorescence assay relative to control
[22] = system: Escherichia coli; assay: Inhibition of LuxR-dependent quorum sensing activity in Escherichia coli MT102 harboring pJBA132 assessed as inhibition of OHHL-induced GFP expression at 2 mM measured after 8 hrs by fluorescence assay relative to control
[23] = system: Escherichia coli; assay: Inhibition of LuxR-dependent quorum sensing activity in Escherichia coli MT102 harboring pJBA132 assessed as inhibition of OHHL-induced GFP expression at 500 uM measured after 8 hrs by fluorescence assay relative to control
[24] = system: Pseudomonas aeruginosa PA14; assay: Inhibition of quorum sensing-regulated pyocyanin production in Pseudomonas aeruginosa PA14 at 2 mM after 24 hrs relative to control

Structure (SMILES)	inhibition [1]	inhibition [2]	inhibition [3]	inhibition [4]	inhibition [5]	inhibition [6]	inhibition at 2000 µM [7]	inhibition at 2000 µM [8]	inhibition at 1000 µM [9]	inhibition at 1000 µM [10]	inhibition at 500 µM [11]	inhibition at 500 µM [12]	inhibition at 2000 µM [13]	inhibition at 2000 µM [14]	inhibition at 1000 µM [15]	inhibition at 1000 µM [16]	inhibition at 500 µM [17]	inhibition at 500 µM [18]	growth inhibition (GI) [19]	inhibition [20]	other results
CCCCCC(=O)N[C@@H]1[C@@H](O)[C@H](O)[C@@H](CO)O[C@H]1O	10%	13.1%	12.9%	42.7%	10.7%	15.8%	19%	3.1%	10.5%	19.2%	7.1%	0%	24.6%	0%	11.7%	8.4%	0%	0%	Non-Toxic	9%	–
CC(=O)OC[C@H]1O[C@@H](OC(C)=O)[C@H](NC(=O)CCc2c[nH]c3ccccc23)[C@@H](OC(C)=O)[C@@H]1OC(C)=O	53.8%	32.6%	9.3%	28.5%	2.3%	–	0%	0%	0%	3.5%	2.3%	3.5%	0%	0%	0%	0%	0%	2.6%	Non-Toxic	–	inhibition [21]: 7.4%; inhibition [22]: 65.5%; inhibition [23]: 13.5%
CCCCCCCCCCCC(=O)N[C@H]1[C@H](OC(C)=O)O[C@H](COC(C)=O)[C@@H](OC(C)=O)[C@@H]1OC(C)=O	–	–	12.8%	59.7%	–	31.5%	1.2%	0%	0%	0%	0%	0%	21.8%	15%	0%	13.4%	0%	12.2%	Non-Toxic	3.5%	inhibition [21]: 35.3%; inhibition [22]: 1.8%; inhibition [24]: 19.7%
CC(=O)OC[C@H]1O[C@@H](OC(C)=O)[C@H](NC(=O)CC(=O)CCCc2ccccc2)[C@@H](OC(C)=O)[C@@H]1OC(C)=O	24.4%	–	6.5%	34.2%	26%	43.4%	24.8%	0%	11.7%	19.6%	0%	0%	21.8%	5.1%	2.6%	4.9%	3.3%	0%	Non-Toxic	–	inhibition [22]: 12.8%
CC(=O)OC[C@H]1O[C@@H](OC(C)=O)[C@H](NC(=O)CCCc2ccccc2)[C@@H](OC(C)=O)[C@@H]1OC(C)=O	5.2%	4.9%	7.3%	43.8%	18.1%	21.1%	37.2%	3.3%	30.9%	25.9%	7.3%	0%	93.2%	26.7%	64.7%	19.7%	15.1%	5.2%	Non-Toxic	–	–
CCCCCCCCCCCC(=O)N[C@@H]1[C@@H](O)[C@H](O)[C@@H](CO)O[C@H]1O	–	–	12.6%	–	4.6%	–	32%	28.7%	30.9%	37.2%	25.5%	19.4%	28.6%	11.7%	46.2%	14.3%	23.2%	14.3%	Non-Toxic	2.3%	inhibition [24]: 20.7%
CCCC(=O)CC(=O)N[C@H]1[C@H](OC(C)=O)O[C@H](COC(C)=O)[C@@H](OC(C)=O)[C@@H]1OC(C)=O	64.5%	59.6%	5.3%	40.9%	85.4%	20.7%	74.9%	4.6%	66.8%	25.9%	5.7%	6.3%	50.3%	65.1%	44.1%	49.2%	22.2%	12.7%	Non-Toxic	38.1%	inhibition [22]: 88.1%; inhibition [24]: 3.5%
CCCCCCCCCC(=O)N[C@@H]1[C@@H](O)[C@H](O)[C@@H](CO)O[C@H]1O	11.5%	15.6%	15.7%	23.3%	16.3%	8.5%	17.6%	0%	20.4%	30.2%	7.8%	16.4%	38.2%	12.3%	45%	20%	0%	15.3%	Non-Toxic	–	inhibition [24]: 13.3%
CCCCCCCC(=O)N[C@H]1[C@H](OC(C)=O)O[C@H](COC(C)=O)[C@@H](OC(C)=O)[C@@H]1OC(C)=O	–	8.5%	14.4%	14%	2.3%	–	33.1%	2.8%	2.5%	0%	2.7%	0%	14.9%	21.4%	0%	9.6%	23.7%	6.2%	Non-Toxic	21.1%	inhibition [21]: 26.1%; inhibition [22]: 36%
CCCCCCCC(=O)N[C@@H]1[C@@H](O)[C@H](O)[C@@H](CO)O[C@H]1O	23.2%	12.2%	17.5%	45.7%	–	48.2%	21.3%	65.4%	0%	0%	3.4%	0%	30.7%	0%	10.6%	4.4%	0%	0%	Non-Toxic	14%	inhibition [21]: 21.3%; inhibition [22]: 16.7%; inhibition [24]: 11.7%
